From ChEMBL document CHEMBL5104153, “De novo design of type II topoisomerase inhibitors as potential antimicrobial agents targeting a novel binding region” (RSC Med Chem, 2022)

How the values were obtained:
[1] = Inhibition of Escherichia coli topoisomerase 4 assessed as relaxation of supercoiled plasmid pBR322 DNA and measured after 30 mins
DNA gyrase = DNA gyrase (Escherichia coli, UniProt P0AES4+P0AES6); assay: Inhibition of Escherichia coli DNA gyrase supercoiling activity using pBR322 as substrate incubated for 30 mins measured by gel-based assay; format: protein-complex assay
Escherichia coli = assay: Antibacterial activity against Escherichia coli measured by broth microdilution assay
Staphylococcus aureus = assay: Antibacterial activity against Staphylococcus aureus measured by broth microdilution assay

Question: Which IC50 [1] does the source give for `COc1ccccc1-c1cccc(C(=O)NC(CN)c2cccc(O)c2)c1` (configuration not stated) here?
Answer: > 100 µM

Question: For `NC[C@H](NC(=O)c1cccc(-c2ccccc2C(F)(F)F)c1)c1ccccc1`, which IC50 [1] is on record?
Answer: > 100 µM

Question: For `Cl.NCC(NC(=O)c1cccc(-c2cccs2)c1)c1ccc(O)cc1` (configuration not stated), which IC50 (DNA gyrase) is on record?
Answer: 300 nM

Question: What about the MIC (Escherichia coli) of the same molecule?
Answer: 8 µg/mL

Question: What about the MIC (Staphylococcus aureus) of the same molecule?
Answer: 8 µg/mL

Question: And the IC50 [1]?
Answer: > 540 µM

Question: Which IC50 [1] does the source give for `CCOc1cccc(-c2cccc(C(=O)N[C@@H](CN)c3ccccc3)c2)c1F` here?
Answer: > 100 µM
